The subject of assay [1] is cerebellar neurons. It counts as cell-based, rat. Particulars: K252a 100 nM, KT5720 200 nM, H-89 400 nM, Wortmannin and LY294002 10 μM; for effect on the neurite outgrowth response to BAG: BAG 6 μM; for effect on the neurite outgrowth response to BDNF: BDNF 5 ng/ml; for effect on the neurite outgrowth response to FGF2: FGF2 5 ng/ml. How it is done: To test the effects of various agents, the experiments were done as indicated in the figure using control media containing no additional supplements, or using media additionally supplement with K252a (100 nM final concentration), a PKA inhibitor (KT5720 at 200 nM final concentration or H-89 at 400 nM final concentration), or a PI3K inhibitor (Wortmannin or Ly294002, each at a final concentration of 10 μM). […] Each column in the figure indicates pooled results from at least three independent experiments, and the bars on each column indicate the SEM.
Reagents and culture treatment. Unless otherwise noted here, reagents in the experiments set forth in this Section were obtained and as set forth supra, in Section 7.1.3 et seq. In particular, recombinant human FGF2 and BDNF were obtained from R&D systems (Minneapolis, Minn.) and used at final concentrations of 5 ng/ml. The Trk receptor […] K252a was obtained from Calbiochem (San Diego, Calif.) and used at a final concentration of 100 nM. The Trk agonist peptide BAG (SEQ ID NO:18) was obtained from a commercial supplier (Multiple Peptide Systems, San Diego Calif.). […] A p75 NTR rabbit polyclonal antibody was raised against the extracellular domain of that receptor as previously described (see, Huber & Chao, Dev. Biol. 1995, 167:227–238) and used at a 1:200 dilution of serum. The known PKA inhibitors KT5720 and H-89 were obtained from Calbiochem (San Diego, Calif.) and used at final concentrations of 200 and 400 nM, respectively.

Another assay has as its target Trk receptor (Rattus norvegicus, UniProt Q63604). The settings on record: maximally active BAG (6 μM); peptides 125 μM, K252a 100 nM.
The target of assay [2] is T1, TrkB receptor (Rattus norvegicus, UniProt Q63604).
T1 construct: endogenous in cells; host or cells: primary rat cerebellar neurons co-cultured on 3T3 fibroblast monolayers
T1 sequence (Q63604 32-821): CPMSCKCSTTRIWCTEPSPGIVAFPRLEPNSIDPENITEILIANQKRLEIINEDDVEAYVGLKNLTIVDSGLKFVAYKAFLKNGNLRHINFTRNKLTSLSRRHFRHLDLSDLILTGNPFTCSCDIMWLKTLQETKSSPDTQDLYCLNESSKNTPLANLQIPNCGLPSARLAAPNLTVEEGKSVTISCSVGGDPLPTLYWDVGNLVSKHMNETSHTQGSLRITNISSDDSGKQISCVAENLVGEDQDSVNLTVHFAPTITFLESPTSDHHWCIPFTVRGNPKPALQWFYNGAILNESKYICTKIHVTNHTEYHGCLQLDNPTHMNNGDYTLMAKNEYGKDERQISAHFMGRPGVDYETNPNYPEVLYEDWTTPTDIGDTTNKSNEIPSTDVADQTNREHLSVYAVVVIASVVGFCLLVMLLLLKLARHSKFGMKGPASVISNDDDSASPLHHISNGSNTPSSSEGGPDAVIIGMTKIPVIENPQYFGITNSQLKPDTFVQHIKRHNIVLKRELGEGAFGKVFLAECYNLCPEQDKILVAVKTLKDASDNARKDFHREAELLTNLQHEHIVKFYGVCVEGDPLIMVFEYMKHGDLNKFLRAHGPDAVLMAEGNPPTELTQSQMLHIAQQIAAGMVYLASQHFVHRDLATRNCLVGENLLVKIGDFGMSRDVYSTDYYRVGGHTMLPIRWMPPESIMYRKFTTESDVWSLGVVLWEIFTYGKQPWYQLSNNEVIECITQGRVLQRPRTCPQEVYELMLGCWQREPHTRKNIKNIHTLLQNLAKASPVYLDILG
Briefly: Neurite outgrowth assay, inhibition of the BDNF response. It counts as cell-based. As for the experimental part:
(§1) After 16 hours, the co-cultures were fixed and mean neurite length determined as has been previously described (Williams et al., J. Biol. Chem. 2000, 275:4007–4012).
(§2) The effect of this peptide on the BDNF and NT-4 response was tested in the above-described neurite outgrowth assay, with both NT ligands used at concentrations of 5 ng/ml.

Assay [3] concerns the target T1, TrkB receptor. In words: Neurite outgrowth assay, inhibition of the NT-4 response. It counts as cell-based. As for the experimental part: as §1, §2
In assay [4] the test system is cerebellar neurons. In words: Neurite outgrowth assay, cerebellar neurons over 3T3 monolayers (stimulation / basal outgrowth). Particulars: for effect on basal neurite outgrowth: absence of any natural NT ligand, N-Ac-CRGEC-NH2 at concentrations greater than about 400 μM. It counts as cell-based, rat. As for the experimental part:
as §1

The test system of assay [5] is MAG inhibitory activity. In words: Neurite outgrowth over N-cadherin expressing 3T3 (LK8) cells with soluble MAG-Fc. It counts as cell-based, rat. Particulars: for effect on MAG-Fc inhibition of neurite outgrowth: MAG-Fc up to 25 μg/ml, Y27632 10 μM, BAG 6 μM, BDNF 5 ng/ml.
Procedure: Reagents and culture treatment. […] In particular, recombinant human FGF2 and BDNF were obtained from R&D systems (Minneapolis, Minn.) and used at final concentrations of 5 ng/ml. The Trk receptor agonist K252a was obtained from Calbiochem (San Diego, Calif.) and used at a final concentration of 100 nM. The Trk agonist peptide BAG (SEQ ID NO:18) was obtained from a commercial supplier (Multiple Peptide Systems, San Diego Calif.). […] Monoclonal antibody to GT1b (clone GMR5) was obtained from Seikagaku America (Falmouth, Mass.) and used at a final concentration of 20 μg/ml. A p75 NTR rabbit polyclonal antibody was raised against the extracellular domain of that receptor as previously described (see, Huber & Chao, Dev. Biol. 1995, 167:227–238) and used at a 1:200 dilution of serum. The known PKA inhibitors KT5720 and H-89 were obtained from Calbiochem (San Diego, Calif.) and used at final concentrations of 200 and 400 nM, respectively. The known PI3K inhibitors Wortmnannin and LY294002 were also obtained from Calbiochem (San Diego, Calif.) and were both used at final concentrations of 10 μM. The Rho kinase inhibitor Y27632 was obtained from Tocris (Bristol, UK) and used at 10 μM final concentration.
All reagents were diluted into the co-culture media and in general added to the cultures just prior to plating of the neurons. The exception was antiserum raised against the p75^NTR receptor. Instead, a high density neuronal suspension was treated with a 1:200 dilution of the serum for 60 minutes. The neurons were then diluted by a factor of about 20, and seeded out for culture.
The subject of the next assay is GT1b. Briefly: Neurite outgrowth over N-cadherin expressing 3T3 cells with monoclonal antibody for GT1b. It is filed as cell-based, rat. The settings on record: antibody 20 μg/ml; Y27632 10 μM, BAG 6 μM.
Another assay deals with p75^NTR receptor. Briefly: Neurite outgrowth over N-cadherin expressing 3T3 cells after treatment with antibody to p75NTR. It counts as cell-based, rat. The settings on record: Y27632 10 μM, BAG 6 μM, BDNF 5 ng/ml added after antibody treatment. How it is done:
These antibody treated neurons were cultured after treatment in either: (1) control media without supplements; (2) the Rho kinase inhibitor Y27632 (10 μM final concentration); (3) BAG polypeptide (6 μM final concentration); or (4) BDNF neurotrophin (5 ng/ml final concentration). […] Each column in the figure indicates pooled results from the number of independent experiments indicated above it, and the bars on each column indicate the SEM.
Reagents and culture treatment. Unless otherwise noted here, reagents in the experiments set forth in this Section were obtained and as set forth supra, in Section 7.1.3 et seq. In particular, recombinant human FGF2 and BDNF were obtained from R&D systems (Minneapolis, Minn.) and used at final concentrations of 5 ng/ml. The Trk receptor […] K252a was obtained from Calbiochem (San Diego, Calif.) and used at a final concentration of 100 nM. The Trk agonist peptide BAG (SEQ ID NO:18) was obtained from a commercial supplier (Multiple Peptide Systems, San Diego Calif.). Recombinant MAG-Fc chimera was obtained from R&D Systems (Minneapolis, Minn.) and used at a final concentration of 5–25 μg/ml. Monoclonal antibody to GT1b (clone GMR5) was obtained from Seikagaku America (Falmouth, Mass.) and used at a final concentration of 20 μg/ml. […]

Assay [6] has as its system MAG inhibitory activity. In words: Neurite outgrowth over 3T3 cells that do not express N-cadherin with soluble MAG-Fc. It counts as cell-based, rat. Particulars: 3T3 without N-cadherin, BAG 6 μM.
The subject of assay [7] is MAG inhibitory activity. Briefly: Substrate based neurite outgrowth assay in inhibitory environment (MAG-Fc coated wells). It counts as cell-based, rat. Particulars: for neurite growth in the inhibitory environment (overall / dose response) / neurite growth in the inhibitory environment at 33 μg/ml: 27 hours; for neurite growth in the inhibitory environment at 33 μg/ml: peptide 33 μg/ml.
Procedure: First, slides are coated with polylysine at 17 μg/ml in distilled water (“dH2O) for thirty (30) minutes at room temperature. After aspirating the wells, a mixture of anti-human IgG and/or fibronectin (both at 10 μg/ml in DMEM) is added to wells to be coated with those compounds, and incubated for 120 minutes. […] PND2/3 rat cerebellar neurons are then added at 15K to each well in DMEM, 10% FCS, 25 mM KCl and 5 ng/ml FGF2, bringing the final media volume to 300 μl in each well. The cerebellar neurons are cultured for 27 hours before fixing and staining for GAP-43.

Assay [8] relates to cerebellar neurons. Particulars: FGF2 5 ng/ml, WIN55,2122-2 0.2 μM; linear peptide up to 125 μM.
Procedure: The peptides were also tested for their ability to inhibit the neurite outgrowth response stimulated by other agents, including N-cadherin, FGF2 or a CB1 receptor agonist.

“And” between values parts separate entries of the source, which are not always exact repeats. Equal entries are not always repeated. “Also recorded” adds a separate entry of the source. Positions of bridges follow the written chain, without caps; N, C: chain ends. Residues, ends and D or L forms follow the SMILES beside them.

Chain of Trk receptor (Q63604 32-821): as above
Procedure for GT1b: Cultures were maintained for 22 hours before fixing and staining for GAP-43. […] Each column in the figure indicates pooled results from between 7 and 10 independent experiments, and the bars on each column indicate the SEM.
Reagents and culture treatment. […] In particular, recombinant human FGF2 and BDNF were obtained from R&D systems (Minneapolis, Minn.) and used at final concentrations of 5 ng/ml. The Trk receptor agonist K252a was obtained from Calbiochem (San Diego, Calif.) and used at a final concentration of 100 nM. The Trk agonist peptide BAG (SEQ ID NO:18) was obtained from a commercial supplier (Multiple Peptide Systems, San Diego Calif.). […] A p75 NTR rabbit polyclonal antibody was raised against the extracellular domain of that receptor as previously described (see, Huber & Chao, Dev. Biol. 1995, 167:227–238) and used at a 1:200 dilution of serum. The known PKA inhibitors KT5720 and H-89 were obtained from Calbiochem (San Diego, Calif.) and used at final concentrations of 200 and 400 nM, respectively.

For `O=S(=O)(NCCNC/C=C/c1ccc(Br)cc1)c1cccc2cnccc12` [H-89], in the assay on cerebellar neurons [1], the “effect on the neurite outgrowth response to BAG” value (from here on “effect … to BAG”) was “essentially abolished”, the “effect on the neurite outgrowth response to BDNF” value (“effect … to BDNF” below) is reported as “essentially abolished” and the “effect on the neurite outgrowth response to FGF2” value (“effect … to FGF2” below) is “unaffected”.

Take `COC(=O)[C@@]1(O)C[C@H]2O[C@]1(C)n1c3ccccc3c3c4c(c5c6ccccc6n2c5c31)C(=O)NC4` [K252a]: in the assay with cerebellar neurons [1], the “effect … to BAG” value is given as “essentially abolished”, the “effect … to BDNF” value is “essentially abolished” and the “effect … to FGF2” value was “unaffected”. Moreover, the “inhibition of the neurite outgrowth response to the BAG peptide” value (“inhibition … to the BAG peptide” below) against Trk receptor is given as “fully inhibited the response”.

For the molecule `CCCCCCOC(=O)[C@]1(O)C[C@@H]2O[C@@]1(C)n1c3ccccc3c3c4c(c5c6ccccc6n2c5c31)C(=O)NC4` [KT5720], in the assay on cerebellar neurons [1], the “effect … to BAG” value is recorded as “essentially abolished”, the “effect … to BDNF” value is on record as “essentially abolished” and the “effect … to FGF2” value was “unaffected”.

As to `CC(=O)N[C@H]1CSSC[C@@H](C(N)=O)NC(=O)[C@H](CCC(=O)O)NC(=O)CNC(=O)[C@H](CCCNC(=N)N)NC(=O)[C@H](CCCNC(=N)N)NC(=O)[C@H](CO)NC1=O` [N-Ac-CSRRGEC-NH2] (Ac-CSRRGEC-NH2; disulfide 1-7), the “TrkB antagonist potency compared with NT-3 and NGF equivalent peptides” value at TrkB receptor [2] is “more potent TrkB antagonist”. Besides, the IC50 is 27 µM and ~25 µM at TrkB receptor [2] (50% inhibition of the BDNF response, BDNF 5 ng/ml); approximately 55 µM at TrkB receptor [3]. The “fold better than the NGF and NT-3 derived peptides at inhibiting the BDNF response” value at TrkB receptor [2] (BDNF 5 ng/ml) is “approximately 5 fold”. For the same molecule, in the assay with cerebellar neurons [4], the “effect on basal neurite outgrowth” value is “neither the N-Ac-CSRRGEC-NH2 (SEQ ID NO:2) peptide nor its NGF or NT-3 equivalents had any effect on basal neurite outgrowth”. Moreover, the “inhibition … to the BAG peptide” value on Trk receptor is reported as “can fully inhibit the activity”.

As for `CCN(CC)CCCCNc1ncc2cc(-c3cc(OC)cc(OC)c3)c(NC(=O)NC(C)(C)C)nc2n1` [PD17304, reference compound], the “inhibition … to the BAG peptide” value against Trk receptor is “did not inhibit the response”.

Turning to `C[C@@H](N)[C@H]1CC[C@H](C(=O)Nc2ccncc2)CC1` [Y27632, reference compound], the “effect on MAG-Fc inhibition of neurite outgrowth” value (from here on “effect on MAG-Fc inhibition”) in the assay with MAG inhibitory activity [5] is on record as “MAG-Fc does not inhibit neurite outgrowth”. Moreover, the “effect on inhibition of neurite outgrowth by GT1b antibody” value in the assay on GT1b is given as “effectively abolishes this effect”. The “effect on inhibitory response elicited by p75NTR antibody” value with p75^NTR receptor is “does not elicit an inhibitory response”.

In the case of “Ac-CSRRGELAASRRGELC-NH2 (cysteine pairing not given here) [BAG]”, in the assay on cerebellar neurons [4], the EC50 is approximately 0.3 µM and the “concentration of near maximal neurite outgrowth response” value is recorded as “about 600 Nm”. In addition, in the assay on cerebellar neurons [4] (BAG 6 μM, comparators 5 ng/ml), the “promotion of axonal growth compared with established growth promoting agents” value was “promotes axonal growth by the same extent as maximally active concentrations of NT-R, BDNF and FGF2”. Also, the “lowest concentration that effectively blocks MAG inhibitor activity” value in the assay on MAG inhibitory activity [5] (MAG-Fc 25 μg/ml) is on record as 30 nM. In addition, in the assay on MAG inhibitory activity [5], the “effect on MAG-Fc inhibition” value is given as “MAG-Fc failed to inhibit neurite outgrowth”. Besides, the “effect on neurite outgrowth in the absence of MAG-Fc” value in the assay with MAG inhibitory activity [6] is recorded as “does not have a substantial effect”. In addition, the “effect on MAG-Fc inhibition” value in the assay with MAG inhibitory activity [6] (MAG-Fc 25 μg/ml, BDNF 5 ng/ml) is on record as “does effectively block the MAG response”. Also, in the assay with GT1b, the “effect on inhibition of neurite outgrowth by GT1b antibody” value was “the antibody's inhibitor effect is effectively eliminated”. The “effect on inhibitory response elicited by p75NTR antibody” value in the assay with p75^NTR receptor is listed as “effectively blocks the p75^NTR antibody's inhibitory effect”. Also, the “neurite growth in the inhibitory environment at 10 μg/ml and 100 μg/ml” value with MAG inhibitory activity [7] (concentrations of 10 μg/ml and 100 μg/ml, MAG-Fc coating) is listed as “promotes neurite growth”.

With Ac-SRRGELA-NH2, the “inhibition of the BDNF response” value against TrkB receptor [2] (BDNF 5 ng/ml, linear peptide up to 125 μM) is “did not inhibit any of the response”. For the same molecule, the “inhibition of the NT-4 response” value on TrkB receptor [3] (NT-4 5 ng/ml, linear peptide up to 125 μM) is “did not inhibit any of the response”. The “inhibition of neurite outgrowth response stimulated by N-cadherin, FGF2 or a CB1 receptor agonist” value with cerebellar neurons [8] is recorded as “did not inhibit any of the response”. For the same molecule, on Trk receptor, the “inhibition … to the BAG peptide” value is on record as “very little to no effect”.

For the molecule “Ac-dCdLdEGdRdRdSdAdAdLdEGdRdRdSdC-NHs [riBAG1]”, in the assay with MAG inhibitory activity [7] (MAG-Fc coating), the “neurite growth in the inhibitory environment (overall / dose response)” value is “block MAG inhibitory activity and promote neurite outgrowth”; the “neurite growth in the inhibitory environment at 33 μg/ml” value is recorded as “does not promote growth”.

As to N-Ac-CRGEC-NH2, the “effect on basal neurite outgrowth” value in the assay with cerebellar neurons [4] was “no effect on basal neurite outgrowth”.

As for c(dLdEGdRdRdSdLdEGdRdRdS) [hriBAG2], in the assay with MAG inhibitory activity [7] (MAG-Fc coating), the “neurite growth in the inhibitory environment (overall / dose response)” value is “block MAG inhibitory activity and promote neurite outgrowth; also recorded: promoted substantial dose-dependent neurite growth”; the “neurite growth in the inhibitory environment at 33 μg/ml” value was “almost double the value seen in the inhibitory environment without the peptidomimetic; also recorded: promoted neurite growth to a substantially greater extent than BDNF, BAG peptide, and the hBAG2 and riBAG1 at any concentration”. For the same molecule, the “dose at which a neurite growth response can be observed” value with MAG inhibitory activity [7] (inhibitory environment (MAG-Fc coating)) is given as “about 10 μg/ml”.

As for cyclo(SRRGELSRRGEL) [hBAG2], in the assay with MAG inhibitory activity [7] (MAG-Fc coating), the “neurite growth in the inhibitory environment (overall / dose response)” value was “block MAG inhibitory activity and promote neurite outgrowth”; the “neurite growth in the inhibitory environment at 33 μg/ml” value is recorded as “promotes neurite growth; also recorded: promoted neurite growth to an extent comparable to BAG polypeptide at a concentration of 10 μg/ml”.

These data come from patent publication US7196061B2, “Compounds that modulate neuronal growth and their uses” (priority 2003, dated 2007).
